From patent US20180193294A1, “Dehydroabietic acid (DHAA) derivatives for use as ion channel openers” (priority 2015, published 2018)

Target: 3R Shaker K channel (Drosophila melanogaster, UniProt P08510, A359R/M356R)
Assay: physchem
Format: cell-based
Conditions: 100 μM; for compound-induced G(V) shift (mean±SEM) / G(V) shift: pH 7.4, Xenopus oocytes; for ΔG(V) of representative G(V) curves (single examples): pH 7.4, same cells as representative traces; for relative current amplitude: representative traces at voltage giving 10% of maximum conductance in control; for relative current amplitude / effect on G(V) shift / current compared with DHAA / increase in G(V) shift relative to DHAA (ΔVc7, ΔVhalo, ΔVtot): pH 7.4; for effect on G(V) shift / current compared with DHAA: C7-modified DHAA; for G(V) shift: Table 1
From the text: A 3R Shaker K channel is a modified Shaker K channel where residues 356 and 359 are mutated to arginines.
All animal experiments were approved by the local Animal Care and Use Committee and followed international guidelines. A modified Shaker H4 channel^30, with removed N-type inactivation (ShH4IR)^31, here called the wild type (WT) channel, was expressed in oocytes. In addition, a modified 3R Shaker K channel where two introduced positive charged arginines (M356R and A359R) in addition to one native arginine (R362) makes the channel more sensitive to DHA^16, was expressed in oocytes and in a CHO—K1 stable cell line.
African clawed frogs (Xenopus laevis) were anesthetized with 1.4 g/L ethyl 3-aminobenzoate methanesulfonate salt (tricaine). After an incision through the abdomen a batch of oocytes were removed. Clusters of oocytes were separated by incubation for ˜1 h in a Ca-free O—R2 solution (in mM: 82.5 NaCl, 2 KCl, 5 HEPES, and 1 MgCl2; pH adjusted to 7.4 by NaOH) containing Liberase Blendzyme. The oocytes were then incubated at 8° C. in a modified Barth's solution (MBS; in mM: 88 NaCl, 1 KCl, 2.4 NaHCO3, 15 HEPES, 0.33 Ca(NO3)2, 0.41 CaCl2, and 0.82 MgSO4; pH adjusted to 7.6 by NaOH) supplemented with penicillin (25 U/ml), streptomycin (25 μg/ml), and sodium pyruvate (2.5 mM) 2-24 hours before injection. Fifty nl of cRNA (50 pg) were injected into each oocyte using a Nanoject injector (Drummond Scientific, Broomall, Pa.). Injected oocytes were kept at 8° C. in MBS until one day before electrophysiological recordings, when they were incubated at 16° C. All chemicals were supplied from Sigma-Aldrich (Stockholm, Sweden) if not stated otherwise.
All manual electrophysiological recordings were performed at room temperature (20-23° C.), using a GeneClamp 500B amplifier (for oocytes) or a Axopatch 200B amplifier (for manual patch clamp of CHO—K1 cells and DRG neurons) and a Digidata 1440A digitizer and pClamp 10 software (all from Molecular Devices, Inc., Sunnyvale, Calif., USA). Compounds were dissolved to 100 mM in 99.5% EtOH and stored at −20° C. Compounds were diluted in extracellular solution to the desired test concentration.
The oocyte was placed in a bath surrounded by 1K extracellular solution that contained (in mM): 88 NaCl, 1 KCl, 15 HEPES, 0.4 CaCl2, and 0.8 MgCl2, pH adjusted to 7.4 by NaOH (reaching a sodium concentration of ˜100 mM). Control solution was added to the bath with a gravity driven perfusion system. Compound solution was added to the bath manually with a syringe. Two glass microelectrodes were inserted into the oocyte using micromanipulators. […] All channels were closed when the potential was clamped to −80 mV and this voltage was set as the holding potential. Currents were evoked from the holding potential of −80 mV by 100-ms long, 5-mV steps ranging from −80 up to +50 mV (WT) and +70 mV (3R).
Conductance GK(V) was calculated as GK(V)=[…], (Eq. 1) where IK is the average current from the steady-state phase at the end of each 100-ms pulse, V is the membrane voltage, and Vrev is the reversal potential for K^+, (set to −80 mV for the oocytes, and calculated to be −89 mV for the CHO—K1 cells).
G(V)=A/(1+exp((V1/2−V)/s))^n (Eq. 2) where A is amplitude of the curve, V is the absolute membrane voltage, V1/2 is the midpoint, s is the slope and n is an exponent set to 4^17. The compound-induced G(V) shift was determined at the 10% level of the maximum conductance in control solution^17. The compound-induced G(V) shift in CHO—K1 was quantified by subtracting the control V1/2 from the compound V1/2 when n was set to 1.
Data for concentration and pH dependent G(V) shifts (ΔV) in oocytes were fit with a dose-response equation ΔV=ΔVmax/(1+c1/2/c), (Eq. 3) where Δvmax is the maximal shift, c1/2 is half maximal effective concentration/pKa value and c is the concentration.

Sequence of 3R Shaker K channel (P08510 whole entry M356R/A359R): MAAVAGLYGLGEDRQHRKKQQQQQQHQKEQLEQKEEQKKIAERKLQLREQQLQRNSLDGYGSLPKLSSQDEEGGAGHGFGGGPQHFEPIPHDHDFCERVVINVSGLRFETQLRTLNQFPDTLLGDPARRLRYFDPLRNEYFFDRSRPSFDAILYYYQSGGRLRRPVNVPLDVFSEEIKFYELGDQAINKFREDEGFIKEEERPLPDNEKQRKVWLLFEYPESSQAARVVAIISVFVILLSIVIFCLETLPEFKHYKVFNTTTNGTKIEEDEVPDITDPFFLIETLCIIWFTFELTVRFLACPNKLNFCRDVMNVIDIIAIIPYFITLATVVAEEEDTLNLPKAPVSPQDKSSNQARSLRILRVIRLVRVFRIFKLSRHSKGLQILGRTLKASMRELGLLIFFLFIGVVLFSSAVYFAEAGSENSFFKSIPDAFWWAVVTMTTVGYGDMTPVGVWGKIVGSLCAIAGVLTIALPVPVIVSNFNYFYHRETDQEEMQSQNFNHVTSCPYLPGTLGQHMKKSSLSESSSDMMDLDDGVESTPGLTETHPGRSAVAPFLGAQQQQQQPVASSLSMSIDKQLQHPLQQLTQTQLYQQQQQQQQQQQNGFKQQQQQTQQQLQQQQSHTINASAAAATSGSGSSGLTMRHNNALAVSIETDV

SMILES | G(V) shift | further results
CC(C)C1=CC2=CC[C@@H]3[C@](C)(CCC[C@@]3(C)C(=O)O)[C@H]2CC1 [AA, abietic acid] | – | compound-induced G(V) shift (mean±SEM): −11.2±2 mV; ΔG(V) of representative G(V) curves (single examples): −8.1 mV; relative current amplitude: 2.2 times
CC(C)c1ccc2c(c1)C(=NOCc1ccccc1)CC1C(C)(C(=O)O)CCCC21C (centres unmarked) [Compound K9] | −9.5 mV | effect on G(V) shift / current compared with DHAA: no significantly different effects compared to DHAA
CC(C)c1ccc2c(c1)C(=NOCCCc1ccccc1)CC1C(C)(C(=O)O)CCCC21C (centres unmarked) [Compound K10] | −3.0 mV | effect on G(V) shift / current compared with DHAA: decreased potency compared to DHAA
CC(C)c1ccc2c(c1Cl)CCC1[C@](C)(C(=O)O)CCC[C@]21C (stereo partly drawn) [Wu14, (1R,4aS)-8-chloro-7-isopropyl-1,4a-dimethyl-1,2,3,4,4a,9,10,10a-octahydrophenanthrene-1-carboxylic acid] | −17.5 mV | –
CC(C)c1ccc2c(c1Cl)C(=O)CC1[C@](C)(C(=O)O)CCC[C@]21C (some centres unmarked) [Wu15] | −4.9 mV | –
CO/N=C1\CC2[C@](C)(C(=O)O)CCC[C@]2(C)c2ccc(C(C)C)c(Cl)c21 (stereo partly drawn) [Wu16, (1R,4aS,E)-8-chloro-7-isopropyl-9-methoxyimino-1,4a-dimethyl-1,2,3,4,4a,9,10,10a-octahydrophenanthrene-1-carboxylic acid] | −17.2 mV | –
CC(C)c1ccc2c(c1Cl)C(=NO)CC1C(C)(C(=O)O)CCCC21C (centres unmarked) [Wu17] | −5.3 mV | –
CC(C)c1ccc2c(c1Cl)C(=NOCc1ccccc1)CC1C(C)(C(=O)O)CCCC21C (centres unmarked) [Wu18] | −1.3 mV | –
C=CCO/N=C1\CC2[C@](C)(C(=O)O)CCC[C@]2(C)c2ccc(C(C)C)c(Cl)c21 (stereo partly drawn) [Wu19, (1R,4aS,E)-9-((allyloxy)imino)-8-chloro-7-isopropyl-1,4a-dimethyl-1,2,3,4,4a,9,10,10a-octahydrophenanthrene-1-carboxylic acid] | −16.1 mV | –
CC(C)c1cc2c(cc1Cl)[C@@]1(C)CCC[C@@](C)(C(=O)O)C1CC2=O (stereo partly drawn) [Wu20, (1R,4aS,E)-6-chloro-7-isopropyl-9-oxo-1,4a-dimethyl-1,2,3,4,4a,9,10,10a-octahydrophenanthrene-1-carboxylic acid] | −13.9 mV | –
CC(C)c1cc2c(cc1Cl)[C@@]1(C)CCC[C@@](C)(C(=O)O)C1C/C2=N\O (stereo partly drawn) [Wu21, (1R,4aS,E)-6-chloro-7-isopropyl-9-hydroxyimino-1,4a-dimethyl-1,2,3,4,4a,9,10,10a-octahydrophenanthrene-1-carboxylic acid] | −13.8 mV | –
CC(C)c1cc2c(cc1Cl)C1(C)CCCC(C)(C(=O)O)C1CC2=NOCc1ccccc1 (centres unmarked) [Wu22] | −9.1 mV | –
CC(C)c1cc2c(cc1Br)[C@@]1(C)CCC[C@@](C)(C(=O)O)C1CC2 (stereo partly drawn) [Wu24, (1R,4aS,E)-6-bromo-7-isopropyl-1,4a-dimethyl-1,2,3,4,4a,9,10,10a-octahydrophenanthrene-1-carboxylic acid] | −12.5 mV | increase in G(V) shift relative to DHAA (ΔVc7, ΔVhalo, ΔVtot): −0.3 mV; compound-induced G(V) shift (mean±SEM): −12.4 mV
CC(C)c1c(Cl)cc2c(c1Cl)CC[C@H]1[C@](C)(C(=O)O)CCC[C@]21C [Wu27] | −5.9 mV | compound-induced G(V) shift (mean±SEM): −5.9±0.4 mV; ΔG(V) of representative G(V) curves (single examples): −6.1 mV
CC(C)c1cc2c(cc1Br)[C@@]1(C)CCC[C@@](C)(C(=O)O)C1C/C2=N\O (stereo partly drawn) [Wu28, (1R,4aS,E)-6-bromo-9-(hydroxyimino)-7-isopropyl-1,4a-dimethyl-1,2,3,4,4a,9,10,10a-octahydrophenanthrene-1-carboxylic acid] | −12.4 mV | –
CC(C)c1cc2c(cc1Br)C1(C)CCCC(C)(C(=O)O)C1CC2=O (centres unmarked) [Wu30] | −7.0 mV | –
CC(C)c1ccc2c(c1)C(=NO)CC1C(C)(C(=O)O)CCCC21C (centres unmarked) [Wu31] | −3.0 mV | effect on G(V) shift / current compared with DHAA: clearly reduced the current increase
C=CCO/N=C1\CC2[C@](C)(C(=O)O)CCC[C@]2(C)c2cc(Br)c(C(C)C)cc21 (stereo partly drawn) [Wu33, (1R,4aS,E)-6-bromo-9-((allyloxy)imino)-7-isopropyl-1,4a-dimethyl-1,2,3,4,4a,9,10,10a-octahydrophenanthrene-1-carboxylic acid] | −24.5 mV | –

SMILES | G(V) shift | further results
CC(C)c1cc2c(cc1Br)C1(C)CCCC(C)(C(=O)O)C1CC2=NOCc1ccccc1 (centres unmarked) [Wu34] | −6.6 mV | –
CON=C1C[C@H]2[C@](C)(C(=O)O)CCC[C@]2(C)c2ccc(C(C)C)cc21 [Wu36] | −14.8 mV | increase in G(V) shift relative to DHAA (ΔVc7, ΔVhalo, ΔVtot): −2.7 mV; compound-induced G(V) shift (mean±SEM): −14.8 mV; effect on G(V) shift / current compared with DHAA: no significantly different effects compared to DHAA; relative current amplitude: 4.4 times
CC(C)c1c(Cl)cc2c(c1Cl)C(=O)CC1C(C)(C(=O)O)CCCC21C (centres unmarked) [Wu37] | −11.1 mV | –
COC1CC2[C@](C)(C(=O)O)CCC[C@]2(C)c2ccc(C(C)C)cc21 (some centres unmarked) [Wu39] | −7.3 mV | effect on G(V) shift / current compared with DHAA: clearly reduced the current increase; relative current amplitude: 2.6 times
C=CCON=C1CC2C(C)(C(=O)O)CCCC2(C)c2cc(Cl)c(C(C)C)c(Cl)c21 (centres unmarked) [Wu40] | −13.4 mV | –
CON=C1C[C@H]2[C@](C)(C(=O)O)CCC[C@]2(C)c2cc(Cl)c(C(C)C)c(Cl)c21 [Wu41, (1R,4aS,10aR)-6,8-dichloro-7-isopropyl-9-(methoxyimino)-1,4a-dimethyl-1,2,3,4,4a,9,10,10a-octahydrophenanthrene-1-carboxylic acid] | −22.1 mV | –
CC(C)c1c(Cl)cc2c(c1Cl)C(=NO)CC1C(C)(C(=O)O)CCCC21C (centres unmarked) [Wu42] | −6.1 mV | –
CC(C)c1c(Cl)cc2c(c1Cl)C(=NOCc1ccccc1)CC1C(C)(C(=O)O)CCCC21C (centres unmarked) [Wu43] | −4.2 mV | –
CC(C)c1c(Cl)c(Cl)c2c(c1Cl)CCC1C(C)(C(=O)O)CCCC21C (centres unmarked) [Wu45] | −3.9 mV | –
CC(C)c1c(Cl)c(Cl)c2c(c1Cl)C(=O)CC1[C@](C)(C(=O)O)CCC[C@]21C (some centres unmarked) [Wu46] | −2.5 mV | –
CON=C1CC2C(C)(C(=O)O)CCCC2(C)c2c(Cl)c(Cl)c(C(C)C)c(Cl)c21 (centres unmarked) [Wu47] | −13.4 mV | –
CC(C)c1c(Cl)c(Cl)c2c(c1Cl)C(=NO)CC1C(C)(C(=O)O)CCCC21C (centres unmarked) [Wu48] | 4.7 mV | –
C=CCON=C1CC2C(C)(C(=O)O)CCCC2(C)c2c(Cl)c(Cl)c(C(C)C)c(Cl)c21 (centres unmarked) [Wu49] | −7.3 mV | –
CC(C)c1c(Cl)c(Cl)c2c(c1Cl)C(=NOCc1ccccc1)CC1C(C)(C(=O)O)CCCC21C (centres unmarked) [Wu51] | −1.9 mV | –
C=CCO/N=C1\CC2[C@](C)(C(=O)O)CCC[C@]2(C)c2cc(F)c(C(C)C)cc21 (stereo partly drawn) [Wu52, (1R,4aS,E)-9-((allyloxy)imino)-6-fluoro-7-isopropyl-1,4a-dimethyl-1,2,3,4,4a,9,10,10a-octahydrophenanthrene-1-carboxylic acid] | −20.2 mV | –
C=CCON=C1CC2C(C)(C(=O)O)CCCC2(C)c2ccc(C(C)C)c(F)c21 (centres unmarked) [Wu53] | −9.2 mV | –
CON=C1CC2C(C)(C(=O)O)CCCC2(C)c2ccc(C(C)C)c(F)c21 (centres unmarked) [Wu54] | −9.0 mV | –
